Key:
Format in all cases: biochemical
T. th. RecA [1] = molecular target: T1, T. th. RecA (Thermus thermophilus, UniProt Q5SHB2); test: PCR with rTaq-HS polymerase: influence of reaction solution composition on T. th. RecA performance, with and without ATP (Example 1); details: 400 μM ATP plus 0.4 μg T. th. RecA, rTaq buffer, 35 cycles, human genome DNA, Primer Sets 1-6; compared with T. th. RecA only
T1 construct: made in house
T1 sequence (Q5SHB2 1-340): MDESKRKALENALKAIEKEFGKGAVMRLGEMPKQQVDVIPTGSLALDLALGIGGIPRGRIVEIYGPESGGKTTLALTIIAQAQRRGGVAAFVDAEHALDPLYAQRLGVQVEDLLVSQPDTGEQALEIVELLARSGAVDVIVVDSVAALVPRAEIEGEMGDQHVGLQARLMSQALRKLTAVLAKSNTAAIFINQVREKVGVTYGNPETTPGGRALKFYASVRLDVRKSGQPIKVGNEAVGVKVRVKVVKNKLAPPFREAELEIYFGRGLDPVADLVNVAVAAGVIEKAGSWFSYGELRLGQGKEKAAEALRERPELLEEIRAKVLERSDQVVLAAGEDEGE
Protocol: The PCR amplification reaction was carried out using a human genome DNA as a template and Primer Set 1. Four kinds of PCR reaction solution were prepared as shown below. Specifically, Reaction solution A was prepared by using 1×rTaq buffer (manufactured by Takara Bio Inc.) as a buffer solution, and Reaction solution B was prepared by adding T. th. RecA further to Reaction solution A. Reaction solution C was prepared by using Taq buffer (manufactured by Takara Bio Inc.) as a buffer solution and adding T. th. RecA. Reaction solution D was prepared by adding T. th. RecA and ATP further to Reaction solution A. The composition of each of the reaction solutions is as shown below. As a DNA polymerase, an rTaq-HS polymerase (manufactured by Takara Bio Inc.) was used.
The above reaction solutions were thermally denatured at 94° C. for 30 seconds. Thereafter, the amplification reaction was carried out with 35 cycles (1 cycle: at 94° C. for 15 seconds, at 55° C. for 30 seconds and at 72° C. for 90 seconds). Thereafter, the amplification reaction was completed by the final reaction cycle at 72° C. for 3 minutes and at 4° C. for 10 minutes. After the amplification, 10 μl of the reaction solution was subjected to electrophoresis with 1.2% agarose gel. After the electrophoresis, the bands were visualized by staining the gel with ethidium bromide, and then the electrophoresis gel was photographed. […]

T. th. RecA [2] = molecular target: T1, T. th. RecA; test: PCR with rTaq-HS polymerase over 28, 32 or 36 cycles: decrease in T. th. RecA performance, with and without ATP (Example 2); details: 400 μM ATP plus 0.4 μg T. th. RecA, Taq buffer, 28, 32 or 36 cycles, Primer Sets 7-9; compared with T. th. RecA only
Protocol: The PCR amplification reaction was carried out using a human genome DNA as a template and Primer Set 7. Two kinds of PCR reaction solution were prepared as shown below. Specifically, Reaction solution E was prepared by adding T. th. RecA only. Reaction solution F was prepared by adding ATP in addition to T. th. RecA. The composition of each of the reaction solutions is as shown below. As a DNA polymerase, an rTaq-HS polymerase was used.
(§1) The above reaction solutions were thermally denatured at 94° C. for 30 seconds. Thereafter, the amplification reaction was conducted in 28, 32 or 36 cycles (1 cycle: at 94° C. for 15 seconds, at 55° C. for 30 seconds and at 72° C. for 90 seconds). And Thereafter, the amplification reaction was completed by the final reaction cycle at 72° C. for 3 minutes and at 4° C. for 10 minutes. After the amplification, 10 μl of the reaction solution was subjected to electrophoresis with 1.2% agarose gel. After the electrophoresis, the bands were visualized by staining the gel with ethidium bromide, and then the electrophoresis gel was photographed. Furthermore, the same experiment was conducted using Primer Sets 8 and 9.

T. th. RecA [3] = molecular target: T1, T. th. RecA; test: PCR with Ex Taq-HS polymerase with T. th. RecA and ATP (Example 3); details: 400 μM ATP plus 0.4 μg T. th. RecA, 36 cycles, Primer Sets 1-6 and 8, compared with no addition
Protocol: The PCR amplification reaction was carried out using a human genome DNA as a template and Primer Set 1. Two kinds of PCR reaction solutions were prepared as shown below. Specifically, Reaction solution G was prepared with a composition of a general PCR reaction solution without adding any of T. th. RecA and ATP (Control). Reaction solution H was prepared by adding T. th. RecA and ATP further to Reaction solution G. The composition of each of the reaction solutions is as shown below. As a DNA polymerase, an Ex Taq-HS polymerase was used.
as §1, with “carried out with” for “conducted in 28, 32 or”, “seconds).” for “seconds). And”, “2, 3, 4, 5, 6” for “8”, “8.” for “9.”

T. th. RecA [4] = molecular target: T1, T. th. RecA; test: PCR with rTaq-HS polymerase with various nucleotide 5'-triphosphates and T. th. RecA (Example 4); details: 36 cycles; for non-specific amplification in PCR (agarose gel): rTaq buffer
Protocol: The PCR amplification reaction was carried out using a human genome DNA as a template and Primer Set 1. Seven kinds of PCR reaction solution were prepared as shown below. Specifically, Reaction solution I was a general PCR reaction solution and prepared without adding any of T. th. RecA and nucleotide 5′-triphosphate (Control). Reaction solution J was prepared by adding T. th. RecA to Reaction solution I. Reaction solutions K, L, M and N were prepared by adding GTP, ATP, UTP and CTP to Reaction solution J, respectively. Reaction solution O was prepared by adding only ATP to Reaction solution I without adding T. th. RecA. The composition of each of the reaction solutions is as shown below. As a DNA polymerase, an rTaq-HS polymerase was used.
as §1, with “carried out with” for “conducted in 28, 32 or”, “seconds).” for “seconds). And”, “2, 3, 4, 5, 6” for “8”, “8.” for “9.”

T. th. RecA [5] = molecular target: T1, T. th. RecA; test: PCR with ExTaq-HS polymerase, effects of primer length, Primer Sets 10-15 (Example 5); details: 0.4 mM ATP plus 0.4 μg T. th. RecA, 35 cycles, primer base length 20 to 45 (Primer Sets 10-15)
Protocol: The PCR amplification reaction was carried out using a human genome DNA as a template and the primer sets of various lengths. The primer sets used here were Primer Sets 10, 11, 12, 13, 14 and 15 with the base length of 20, 25, 30, 35, 40 and 45, respectively. Two kinds of PCR reaction solution were prepared as shown below. Specifically, Reaction solution P was prepared by adding T. th. RecA and ATP. Reaction solution Q was prepared similarly to Reaction solution P except that ATP was not added. The composition of each of the reaction solutions is as shown below. As a DNA polymerase, an ExTaq-HS polymerase (manufactured by Takara Bio Inc.) was used.
The above reaction solutions were thermally denatured at 94° C. for 30 seconds. Thereafter, the amplification reaction was carried out with 35 cycles (1 cycle: at 94° C. for 15 seconds, at 55° C. for 30 seconds and at 72° C. for 90 seconds). Thereafter, the amplification reaction was completed by the final reaction cycle at 72° C. for 3 minutes and at 4° C. for 10 minutes. After the amplification, 10 μl of the reaction solution was subjected to electrophoresis with 1.2% agarose gel. After the electrophoresis, the bands were visualized by staining the gel with ethidium bromide, and then the electrophoresis gel was photographed.

T. th. RecA [6] = molecular target: T1, T. th. RecA; test: PCR with ExTaq-HS polymerase, effects of primer length, Primer Sets 16-21 (Example 6); details: 0.4 mM ATP plus 0.4 μg T. th. RecA, primer base length 20 to 45 (Primer Sets 16-21)
Protocol: The PCR amplification reaction was carried out using a human genome DNA as a template and the primer sets of various lengths. The primer sets used here were Primer Sets 16, 17, 18, 19, 20 and 21 with the base lengths of 20, 25, 30, 35, 40 and 45. The same PCR reaction solutions as in Example 5 were used. Specifically, Reaction solution P was prepared by adding T. th. RecA and ATP. Reaction solution Q was prepared similarly to Reaction solution P except that ATP was not added. As a DNA polymerase, an ExTaq-HS polymerase (manufactured by Takara Bio Inc.) was used. Then, the PCR reaction was carried out under the same conditions as in Example 5, then electrophoresis and staining of the electrophoresed gel were conducted, and then photographing was conducted according to the same procedures as in Example 5.

T. th. RecA [7] = molecular target: T1, T. th. RecA; test: PCR with T. th. DNA polymerase, combination of T. th. RecA with ATP (Example 7); details: 35 cycles
Protocol: PCR amplification by the T. th. DNA polymerase was carried out using a human genome DNA as a template and Primer Set 1. Five kinds of PCR reaction solution were prepared as shown below. Specifically, Reaction solution R was prepared by adding T. th. RecA and ATP. Reaction solution S was prepared similarly to Reaction solution R except that ATP was not added. Reaction solution T was prepared similarly to Reaction solution R except that ATP and T. th. […] Reaction solution U was prepared similarly to Reaction solution R except that T. th. RecA and ATP were not added but a T. th. RecA storage buffer was added instead. Further, Reaction solution V was prepared similarly to Reaction solution R except that T. th. RecA was not added. The composition of each of the reaction solutions is as shown below.
The above reaction solutions were thermally denatured at 92° C. for 30 seconds. Then, amplification reaction was carried out with 35 cycles (1 cycle: at 94° C. for 15 seconds, at 55° C. for 30 seconds and at 68° C. for 90 seconds). Thereafter, the amplification reaction was completed by the final reaction cycle at 68° C. for 3 minutes and at 4° C. for 10 minutes. After the amplification, 10 μl of the reaction solution was subjected to electrophoresis with 1.2% agarose gel. […]

T. th. RecA [8] = molecular target: T1, T. th. RecA; test: PCR and multiplex PCR with T. th. DNA polymerase, T. th. RecA and ATP (Example 8); details: 0.4 mM ATP plus 0.4 μg T. th. RecA
Protocol: The PCR amplification reaction by the T. th. DNA polymerase was carried out using a human genome DNA as a template. The primer sets used herein were Primer Sets 22, 23, 24, 25, 26, 27, 28, 29, 30, 31, 32, 33, 1 and 2. In addition, multiplex PCR was carried out in which these primer sets were added in one reaction system and amplified. Two kinds of PCR reaction solution were prepared as shown below. Specifically, Reaction solution W was prepared by adding T. th. RecA and ATP. Reaction solution X was prepared similarly to Reaction solution W except that T. th. RecA and ATP were not added but a T. th. RecA storage buffer was added instead.
The above reaction solutions were thermally denatured at 92° C. for 30 seconds. Thereafter, the amplification reaction was carried out with 35 cycles (1 cycle: at 94° C. for 15 seconds, at 55° C. for 30 seconds and at 68° C. for 2 minutes). Thereafter, the amplification reaction was completed by the final reaction cycle at 68° C. for 3 minutes and at 4° C. for 10 minutes. After the amplification, 3 μl of the reaction solution was subjected to electrophoresis with 12.5% acrylamide gel. After the electrophoresis, the bands were visualized by staining the gel with cyber green, and then the electrophoresis gel was photographed.

Nc1ncnc2c1ncn2[C@@H]1O[C@H](COP(=O)(O)OP(=O)(O)OP(=O)(O)O)[C@@H](O)[C@H]1O [ATP, adenosine 5′-triphosphate]
non-specific amplification in PCR (agarose gel) (T. th. RecA [1]): non-specific amplification can be remarkably reduced
non-specific amplification in PCR (agarose gel) (T. th. RecA [2]): non-specific amplification can be suppressed
non-specific amplification in PCR (agarose gel) (T. th. RecA [3]): non-specific amplification was suppressed
non-specific amplification in PCR (agarose gel) (T. th. RecA [4]; 400 μM ATP alone, without T. th. RecA, Lanes 43 to 49): non-specific amplification was not suppressed
suppression of non-specific amplification, comparison among the NTP and T. th. RecA combinations (T. th. RecA [4]; 400 μM GTP, ATP, UTP or CTP plus 0.4 μg T. th. RecA): suppressed non-specific amplification the most
non-specific amplification in PCR (agarose gel) (T. th. RecA [4]; 400 μM NTP plus 0.4 μg T. th. RecA, Primer Sets 1-6 and 8, compared with T. th. RecA only): non-specific amplification can be suppressed
non-specific amplification in PCR (agarose gel) (T. th. RecA [5]): non-specific amplification can be remarkably reduced
non-specific amplification in PCR (agarose gel) (T. th. RecA [6]): non-specific amplification was remarkably suppressed
non-specific amplification in PCR (agarose gel) (T. th. RecA [7]; 0.4 mM ATP only, without T. th. RecA): production of non-specific amplification products was found
non-specific amplification in PCR (agarose gel) (T. th. RecA [7]; 0.4 mM ATP plus 0.4 μg T. th. RecA, Primer Sets 1-6 and 8): non-specific amplification was remarkably suppressed
non-specific amplification in PCR (acrylamide gel) (T. th. RecA [8]; 35 cycles, single primer sets 22-33, 1 and 2 (Lanes 1 to 14)): non-specific amplification was remarkably suppressed
specific amplification in multiplex PCR (acrylamide gel) (T. th. RecA [8]; all 14 primer sets in one reaction system (Lane 15)): the target sequences corresponding to each of the primer sets were specifically amplified
